Entries after “also recorded” stand apart in the source; their conditions may differ.
Key:
EC = EC proliferation; format: cell-based; details: inhibitors at 10 μM; 24, 48, 72 h
Protocol: Inhibition of cell proliferation and signaling. (a) EC were cultured in the presence of vehicle (DMSO) or PI3K inhibitors (all at 10 μM); cell proliferation was assessed either 24 (open bar), 48 (grey bar), or 72 h (black bar) later.
Applicants therefore compared the compounds profiled in Table 1 for their effects on cell proliferation.

VEGF-induced edema = assay: Miles assay, VEGF as agonist; format: in vivo, Sprague-Dawley rats
Protocol: A rodent model of vascular edema, the Miles assay, was used to screen compounds for their ability to inhibit VEGF-induced edema. […] Sprague-Dawley rats were first injected IV with vehicle alone or test agent, followed by IV injection of Evans blue dye, followed by intradermal injections of saline and VEGF (200 ng/injection site) along both shaved flanks.

MAPKAP-K2 = target: T1, MAPKAP-K2 (Homo sapiens, UniProt P49137); assay: Kinase panel screen; format: biochemical; details: Compound I and ATP 10 μM
T1 construct: purchased Upstate USA or Invitrogen (commercial screening service)

PKCi = target: T2, PKCi (Homo sapiens, UniProt P41743); assay: Kinase panel screen; format: biochemical; details: Compound I and ATP 10 μM
T2 construct: purchased Upstate USA or Invitrogen (commercial screening service)

Akt1 = target: T3, Akt1 (Homo sapiens, UniProt P31749); assay: Kinase panel screen; format: biochemical; details: Compound I at 1 μM and ATP at the apparent Km
T3 construct: purchased Upstate USA or Invitrogen (commercial screening service)

PKCC, = target: T4, PKCC, (Homo sapiens, UniProt Q05513); assay: Kinase panel screen; format: biochemical; details: Compound I and ATP 10 μM
T4 construct: purchased Upstate USA or Invitrogen (commercial screening service)

Akt2 = Akt2 (Homo sapiens, UniProt P31751); assay: Kinase panel screen; format: biochemical; details: Compound I at 1 μM and ATP at the apparent Km
EphB4 = target: T5, EphB4 (Homo sapiens, UniProt P54760); assay: Kinase panel screen; format: biochemical; details: Compound I and ATP 10 μM
T5 construct: purchased Upstate USA or Invitrogen (commercial screening service)

MEK2 = target: T6, MEK2 (Homo sapiens, UniProt P36507); assay: Kinase panel screen; format: biochemical; details: Compound I at 1 μM and ATP at the apparent Km
T6 construct: purchased Upstate USA or Invitrogen (commercial screening service)

PKC0 = target: T7, PKC0 (Homo sapiens, UniProt Q04759); assay: Kinase panel screen; format: biochemical; details: Compound I and ATP 10 μM
T7 construct: purchased Upstate USA or Invitrogen (commercial screening service)

ALK4 = target: T8, ALK4 (Homo sapiens, UniProt P36896); assay: Kinase panel screen; format: biochemical; details: Compound I and ATP 10 μM
T8 construct: purchased Upstate USA or Invitrogen (commercial screening service)

ErbB4 = target: T9, ErbB4 (Homo sapiens, UniProt Q15303); assay: Kinase panel screen; format: biochemical; details: Compound I and ATP 10 μM
T9 construct: purchased Upstate USA or Invitrogen (commercial screening service)

PRAK = target: T10, PRAK (Homo sapiens, UniProt Q8IW41); assay: Kinase panel screen; format: biochemical; details: Compound I and ATP 10 μM
T10 construct: purchased Upstate USA or Invitrogen (contract screening service)

FGFR2 = target: T11, FGFR2 (Homo sapiens, UniProt P21802); assay: Kinase panel screen; format: biochemical; details: Compound I and ATP 10 μM
T11 construct: purchased Upstate USA or Invitrogen (contract screening service)

MKK6 = MKK6 (Homo sapiens, UniProt P52564); assay: Kinase panel screen; format: biochemical; details: Compound I and ATP 10 μM
PRK2 = target: T12, PRK2 (Homo sapiens, UniProt Q16513); assay: Kinase panel screen; format: biochemical; details: Compound I and ATP 10 μM
T12 construct: purchased Upstate USA or Invitrogen (contract screening service)

Aurora-A = target: T13, Aurora-A (Homo sapiens, UniProt O14965); assay: Kinase panel screen; format: biochemical; details: Compound I and ATP 10 μM
T13 construct: purchased Upstate USA or Invitrogen (contract screening service)

Bmx = target: T14, Bmx (Homo sapiens, UniProt P51813); assay: Kinase panel screen; format: biochemical; details: Compound I and ATP 10 μM
T14 construct: purchased Upstate USA or Invitrogen (commercial screening service)

MST2 = target: T15, MST2 (Homo sapiens, UniProt Q13188); assay: Kinase panel screen; format: biochemical; details: Compound I and ATP 10 μM
T15 construct: purchased Upstate USA or Invitrogen (commercial screening service)

BRK = target: T16, BRK (Homo sapiens, UniProt Q13882); assay: Kinase panel screen; format: biochemical; details: Compound I and ATP 10 μM
T16 construct: purchased Upstate USA or Invitrogen (commercial screening service)

Ros = target: T17, Ros (Homo sapiens, UniProt P08922); assay: Kinase panel screen; format: biochemical; details: Compound I and ATP 10 μM
T17 construct: purchased Upstate USA or Invitrogen (commercial screening service)

Fyn = target: T18, Fyn (Homo sapiens, UniProt P06241); assay: Kinase panel screen; format: biochemical; details: Compound I and ATP 10 μM
T18 construct: purchased Upstate USA or Invitrogen (commercial screening service)

NEK7 = target: T19, NEK7 (Homo sapiens, UniProt Q8TDX7); assay: Kinase panel screen; format: biochemical; details: Compound I and ATP 10 μM
T19 construct: purchased Upstate USA or Invitrogen (commercial screening service)

PAK2 = target: T20, PAK2 (Homo sapiens, UniProt Q13177); assay: Kinase panel screen; format: biochemical; details: Compound I and ATP 10 μM
T20 construct: purchased Upstate USA or Invitrogen (commercial screening service)

HIPK2 = target: T21, HIPK2 (Homo sapiens, UniProt Q9H2X6); assay: Kinase panel screen; format: biochemical; details: Compound I and ATP 10 μM
T21 construct: purchased Upstate USA or Invitrogen (commercial screening service)

PAK4 = target: T22, PAK4 (Homo sapiens, UniProt O96013); assay: Kinase panel screen; format: biochemical; details: Compound I and ATP 10 μM
T22 construct: purchased Upstate USA or Invitrogen (commercial screening service)

CDK1 = target: T23, CDK1 (Homo sapiens, UniProt P06493); assay: Kinase panel screen; format: biochemical; details: Compound I and ATP 10 μM
T23 construct: purchased Upstate USA or Invitrogen (commercial screening service)

PDGFRa = target: T24, PDGFRa (Homo sapiens, UniProt P16234); assay: Kinase panel screen; format: biochemical; details: Compound I and ATP 10 μM
T24 construct: purchased Upstate USA or Invitrogen (commercial screening service)

SAPK3 = target: T25, SAPK3 (Homo sapiens, UniProt P53778); assay: Kinase panel screen; format: biochemical; details: Compound I and ATP 10 μM
T25 construct: purchased Upstate USA or Invitrogen (commercial screening service)

CDK3 = target: T26, CDK3 (Homo sapiens, UniProt Q00526); assay: Kinase panel screen; format: biochemical; details: Compound I and ATP 10 μM
T26 construct: purchased Upstate USA or Invitrogen (commercial screening service)

IRAK4 = target: T27, IRAK4 (Homo sapiens, UniProt Q9NWZ3); assay: Kinase panel screen; format: biochemical; details: Compound I and ATP 10 μM
T27 construct: purchased Upstate USA or Invitrogen (contract screening service)

PKA = PKA (Homo sapiens, UniProt P17612); assay: Kinase panel screen; format: biochemical; details: Compound I and ATP 10 μM
TAK1 = target: T28, TAK1 (Homo sapiens, UniProt O43318); assay: Kinase panel screen; format: biochemical; details: Compound I and ATP 10 μM
T28 construct: purchased Upstate USA or Invitrogen (contract screening service)

JNK1a1 = JNK1a1 (Homo sapiens, UniProt P45983); assay: Kinase panel screen; format: biochemical; details: Compound I and ATP 10 μM
PKBy = target: T29, PKBy (Homo sapiens, UniProt Q9Y243); assay: Kinase panel screen; format: biochemical; details: read-out: Percent Control, PKBy
T29 construct: purchased Upstate USA or Invitrogen (contract screening service)

INK3 = INK3 (Rattus norvegicus, UniProt P49187); assay: Kinase panel screen; format: biochemical; details: Compound I and ATP 10 μM
PKB 3 = PKB 3 (Homo sapiens, UniProt P31751); assay: Kinase panel screen; format: biochemical; details: read-out: Percent Control, PKB 3
cSrc = target: T30, cSrc (Homo sapiens, UniProt P12931); assay: Kinase panel screen; format: biochemical; details: Compound I and ATP 10 μM
T30 construct: purchased Upstate USA or Invitrogen (commercial screening service)

PKCs = target: T31, PKCs (Homo sapiens, UniProt Q02156); assay: Kinase panel screen; format: biochemical; details: Compound I and ATP 10 μM
T31 construct: purchased Upstate USA or Invitrogen (commercial screening service)

PKC8 = target: T32, PKC8 (Homo sapiens, UniProt Q05655); assay: Kinase panel screen; format: biochemical; details: Compound I and ATP 10 μM
T32 construct: purchased Upstate USA or Invitrogen (commercial screening service)

T31 sequence (Q02156 whole entry): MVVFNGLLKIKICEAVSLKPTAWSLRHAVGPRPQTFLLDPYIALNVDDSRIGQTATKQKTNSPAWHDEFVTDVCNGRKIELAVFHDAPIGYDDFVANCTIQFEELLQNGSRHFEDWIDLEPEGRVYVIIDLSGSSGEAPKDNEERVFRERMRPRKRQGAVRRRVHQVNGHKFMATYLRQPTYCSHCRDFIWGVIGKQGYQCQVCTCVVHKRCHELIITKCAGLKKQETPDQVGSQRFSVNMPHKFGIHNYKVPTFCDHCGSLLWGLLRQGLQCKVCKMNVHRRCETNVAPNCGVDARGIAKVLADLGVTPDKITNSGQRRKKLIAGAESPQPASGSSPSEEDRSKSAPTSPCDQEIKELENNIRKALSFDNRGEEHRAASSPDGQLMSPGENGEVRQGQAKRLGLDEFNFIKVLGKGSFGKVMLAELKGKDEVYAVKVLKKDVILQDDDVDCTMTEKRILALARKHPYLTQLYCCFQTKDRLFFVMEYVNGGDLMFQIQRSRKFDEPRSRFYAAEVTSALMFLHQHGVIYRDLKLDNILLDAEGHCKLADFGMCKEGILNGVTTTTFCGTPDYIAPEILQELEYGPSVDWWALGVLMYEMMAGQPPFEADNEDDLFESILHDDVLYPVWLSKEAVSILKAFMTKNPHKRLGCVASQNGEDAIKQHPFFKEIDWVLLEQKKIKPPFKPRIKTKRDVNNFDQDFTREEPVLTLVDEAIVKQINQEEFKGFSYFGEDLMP
INK3, sequence (P49187 whole entry): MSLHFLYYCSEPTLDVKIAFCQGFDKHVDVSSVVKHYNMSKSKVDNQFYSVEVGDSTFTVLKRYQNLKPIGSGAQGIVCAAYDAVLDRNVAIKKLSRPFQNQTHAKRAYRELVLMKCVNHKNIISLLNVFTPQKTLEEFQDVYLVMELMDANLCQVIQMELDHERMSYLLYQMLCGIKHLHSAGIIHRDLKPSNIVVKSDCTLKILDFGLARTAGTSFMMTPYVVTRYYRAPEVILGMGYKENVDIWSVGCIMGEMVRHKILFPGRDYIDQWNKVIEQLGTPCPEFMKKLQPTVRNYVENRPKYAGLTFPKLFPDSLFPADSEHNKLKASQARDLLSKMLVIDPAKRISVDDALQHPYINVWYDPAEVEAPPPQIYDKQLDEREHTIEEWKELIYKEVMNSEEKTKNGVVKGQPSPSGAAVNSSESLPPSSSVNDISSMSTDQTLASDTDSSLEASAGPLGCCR
T28 sequence (O43318 1-303 limits assumed): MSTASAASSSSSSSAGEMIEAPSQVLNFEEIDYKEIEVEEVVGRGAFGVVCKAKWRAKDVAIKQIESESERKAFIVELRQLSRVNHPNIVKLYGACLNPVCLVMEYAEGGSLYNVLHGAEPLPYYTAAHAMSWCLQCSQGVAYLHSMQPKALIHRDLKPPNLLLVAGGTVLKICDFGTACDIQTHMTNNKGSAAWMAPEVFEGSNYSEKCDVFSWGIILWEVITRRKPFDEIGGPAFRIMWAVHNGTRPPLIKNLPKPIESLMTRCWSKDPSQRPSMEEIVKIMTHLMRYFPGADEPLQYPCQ
T6 sequence (P36507 whole entry): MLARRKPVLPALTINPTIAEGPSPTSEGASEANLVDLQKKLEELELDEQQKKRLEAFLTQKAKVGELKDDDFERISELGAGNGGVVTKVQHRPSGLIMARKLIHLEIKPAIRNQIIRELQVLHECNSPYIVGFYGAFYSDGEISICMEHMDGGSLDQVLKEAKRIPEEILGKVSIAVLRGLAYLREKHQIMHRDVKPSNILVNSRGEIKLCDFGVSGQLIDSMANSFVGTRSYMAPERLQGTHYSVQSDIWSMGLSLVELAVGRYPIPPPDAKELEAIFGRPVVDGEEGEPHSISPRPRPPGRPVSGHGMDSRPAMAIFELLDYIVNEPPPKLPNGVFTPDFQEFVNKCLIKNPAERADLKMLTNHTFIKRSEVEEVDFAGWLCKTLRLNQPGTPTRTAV
T5 sequence (P54760 16-987): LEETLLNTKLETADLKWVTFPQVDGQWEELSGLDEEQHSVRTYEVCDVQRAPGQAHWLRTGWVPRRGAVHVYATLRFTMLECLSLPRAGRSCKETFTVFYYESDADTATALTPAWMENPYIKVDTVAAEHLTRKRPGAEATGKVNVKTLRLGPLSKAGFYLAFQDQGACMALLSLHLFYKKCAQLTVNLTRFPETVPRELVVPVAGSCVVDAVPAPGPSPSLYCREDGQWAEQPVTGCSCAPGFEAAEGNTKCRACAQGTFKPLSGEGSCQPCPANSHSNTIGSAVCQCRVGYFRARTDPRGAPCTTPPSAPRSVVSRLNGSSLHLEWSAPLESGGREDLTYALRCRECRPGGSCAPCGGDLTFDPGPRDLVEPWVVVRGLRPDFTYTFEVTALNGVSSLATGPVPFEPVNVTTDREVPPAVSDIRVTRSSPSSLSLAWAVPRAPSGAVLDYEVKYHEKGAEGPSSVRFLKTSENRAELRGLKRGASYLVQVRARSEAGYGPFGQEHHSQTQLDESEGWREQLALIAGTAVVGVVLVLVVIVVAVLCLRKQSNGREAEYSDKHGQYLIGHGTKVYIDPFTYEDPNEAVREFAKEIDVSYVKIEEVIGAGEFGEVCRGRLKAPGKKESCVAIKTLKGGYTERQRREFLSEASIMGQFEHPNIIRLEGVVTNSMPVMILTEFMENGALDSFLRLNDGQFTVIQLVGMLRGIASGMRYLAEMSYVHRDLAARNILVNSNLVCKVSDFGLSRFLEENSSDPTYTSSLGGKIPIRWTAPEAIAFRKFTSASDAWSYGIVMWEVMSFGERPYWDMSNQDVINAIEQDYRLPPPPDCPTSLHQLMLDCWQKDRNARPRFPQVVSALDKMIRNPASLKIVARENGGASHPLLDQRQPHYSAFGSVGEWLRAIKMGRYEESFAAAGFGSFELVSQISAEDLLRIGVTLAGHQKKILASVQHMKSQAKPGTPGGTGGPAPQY
T26 sequence (Q00526 whole entry): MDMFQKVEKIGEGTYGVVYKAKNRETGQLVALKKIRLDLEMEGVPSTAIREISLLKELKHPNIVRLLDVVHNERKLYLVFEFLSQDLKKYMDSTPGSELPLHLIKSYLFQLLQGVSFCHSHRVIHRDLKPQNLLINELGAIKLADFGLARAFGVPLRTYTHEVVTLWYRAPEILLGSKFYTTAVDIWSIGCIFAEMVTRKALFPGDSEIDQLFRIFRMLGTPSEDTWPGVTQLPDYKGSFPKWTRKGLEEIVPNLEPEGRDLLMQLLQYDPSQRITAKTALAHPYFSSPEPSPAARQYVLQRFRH
T26 sequence (P24864 whole entry partner): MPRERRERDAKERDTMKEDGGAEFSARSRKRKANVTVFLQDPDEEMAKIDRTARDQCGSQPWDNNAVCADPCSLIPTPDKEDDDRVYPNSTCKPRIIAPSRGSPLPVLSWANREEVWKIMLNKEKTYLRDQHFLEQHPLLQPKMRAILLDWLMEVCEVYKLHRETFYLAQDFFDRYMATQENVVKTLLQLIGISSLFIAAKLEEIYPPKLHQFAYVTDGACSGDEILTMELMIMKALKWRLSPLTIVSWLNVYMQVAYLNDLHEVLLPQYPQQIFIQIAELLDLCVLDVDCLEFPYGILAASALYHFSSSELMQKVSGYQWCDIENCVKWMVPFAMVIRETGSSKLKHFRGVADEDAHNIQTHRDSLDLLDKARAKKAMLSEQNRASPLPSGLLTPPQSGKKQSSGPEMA
T1 sequence (P49137 whole entry): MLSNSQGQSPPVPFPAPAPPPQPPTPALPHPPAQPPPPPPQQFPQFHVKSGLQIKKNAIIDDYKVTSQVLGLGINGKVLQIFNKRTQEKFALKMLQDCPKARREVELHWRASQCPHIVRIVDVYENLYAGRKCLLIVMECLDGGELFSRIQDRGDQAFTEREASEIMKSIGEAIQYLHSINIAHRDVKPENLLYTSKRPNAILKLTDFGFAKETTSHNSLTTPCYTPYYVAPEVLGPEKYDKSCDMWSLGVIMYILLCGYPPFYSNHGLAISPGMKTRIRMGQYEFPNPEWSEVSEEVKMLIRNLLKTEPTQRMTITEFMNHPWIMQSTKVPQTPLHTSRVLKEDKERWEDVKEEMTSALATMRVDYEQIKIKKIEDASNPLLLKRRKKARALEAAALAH
PKB 3, sequence (P31751 whole entry): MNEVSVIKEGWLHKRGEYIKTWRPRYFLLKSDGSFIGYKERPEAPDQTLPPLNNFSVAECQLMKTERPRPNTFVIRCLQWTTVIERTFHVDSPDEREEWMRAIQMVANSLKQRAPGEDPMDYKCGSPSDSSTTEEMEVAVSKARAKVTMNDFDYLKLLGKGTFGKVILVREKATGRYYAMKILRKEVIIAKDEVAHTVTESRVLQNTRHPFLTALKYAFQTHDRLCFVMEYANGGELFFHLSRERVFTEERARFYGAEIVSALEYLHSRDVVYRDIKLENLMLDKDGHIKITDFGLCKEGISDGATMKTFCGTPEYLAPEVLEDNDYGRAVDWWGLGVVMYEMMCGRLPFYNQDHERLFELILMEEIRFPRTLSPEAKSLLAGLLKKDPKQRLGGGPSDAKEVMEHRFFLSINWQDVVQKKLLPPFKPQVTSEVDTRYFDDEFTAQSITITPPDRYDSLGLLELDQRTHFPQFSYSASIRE
Akt2, sequence (P31751 whole entry): as above
T13 sequence (O14965 whole entry): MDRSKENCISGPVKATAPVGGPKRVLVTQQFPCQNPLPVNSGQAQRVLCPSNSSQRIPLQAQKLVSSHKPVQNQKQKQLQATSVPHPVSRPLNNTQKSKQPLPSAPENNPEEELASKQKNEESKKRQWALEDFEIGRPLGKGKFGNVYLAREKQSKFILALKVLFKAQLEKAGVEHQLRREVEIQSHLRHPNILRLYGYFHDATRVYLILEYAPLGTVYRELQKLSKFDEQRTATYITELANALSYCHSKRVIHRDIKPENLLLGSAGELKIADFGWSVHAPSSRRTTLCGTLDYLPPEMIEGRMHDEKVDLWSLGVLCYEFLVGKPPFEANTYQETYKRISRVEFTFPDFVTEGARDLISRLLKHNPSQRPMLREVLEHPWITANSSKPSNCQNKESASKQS

Q: Which results are given for `Nc1nc(N)c2nc(-c3cccc(O)c3)c(-c3cccc(O)c3)nc2n1` [Compound I, 6,7-bis-(3-hydroxyphenyl)-pteridine-2,4-diamine]?
A: effect on EC proliferation (EC): no effects; time for which a single i.v. administration reduced edema formation (VEGF-induced edema; Miles assay, varied time between compound and agonist challenge, data not shown): at least 4 hours; VEGF-induced vascular permeability / edema formation (VEGF-induced edema; rats, Compound I pretreatment (1 mg/kg in FIG. 4)): inhibited; also recorded: reduced edema formation; Percent Control, MAPKAP-K2 (MAPKAP-K2): 107%; Percent Control, PKCi (PKCi): 105%; Percent Control, Akt1* (Akt1): 96%; Percent Control, PKCC, (PKCC,): 99%; Percent Control, Akt2* (Akt2): 103%; Percent Control, EphB4 (EphB4): 68%; Percent Control, MEK2* (MEK2): 94%; Percent Control, PKC0 (PKC0): 73%; Percent Control, ALK4 (ALK4): 91%; Percent Control, ErbB4 (ErbB4): 40%; Percent Control, PRAK (PRAK): 63%; Percent Control, FGFR2 (FGFR2): 73%; Percent Control, MKK6 (MKK6): 75%; Percent Control, PRK2 (PRK2): 83%; Percent Control, Aurora-A (Aurora-A): 71%; Percent Control, Bmx (Bmx): 58%; Percent Control, MST2 (MST2): 91%; Percent Control, BRK (BRK): 79%; Percent Control, Ros (Ros): 90%; Percent Control, Fyn (Fyn): 54%; Percent Control, NEK7 (NEK7): 99%; Percent Control, PAK2 (PAK2): 87%; Percent Control, HIPK2 (HIPK2): 87%; Percent Control, PAK4 (PAK4): 78%; Percent Control, CDK1 (CDK1): 54%; Percent Control, PDGFRa (PDGFRa): 86%; Percent Control, SAPK3 (SAPK3): 98%; Percent Control, CDK3 (CDK3): 72%; Percent Control, IRAK4 (IRAK4): 89%; Percent Control, PKA (PKA): 93%; Percent Control, TAK1 (TAK1): 65%; Percent Control, JNK1a1 (JNK1a1): 80%; remaining activity at 10 µM (PKBy): 98%; Percent Control, INK3(r) (INK3): 64%; remaining activity at 10 µM (PKB 3): 103%; Percent Control, cSrc (cSrc): 53%; Percent Control, PKCs (PKCs): 69%; Percent Control, PKC8 (PKC8): 89%

Source: patent US7691858B2, “Kinase inhibitors and methods of use thereof” (TargeGen, Inc., priority 2006, dated 2010)
